Results on two compounds are retold here after US20100040711A1, “ZINC-CARNOSINE -BASED TREATMENT FOR NON ULCER (FUNCTIONAL ) DYSPEPSIA & IRRITABLE BOWEL SYNDROME IN HUMANS AND OTHER ANIMALS” (priority 2008, published 2010).

For one data set, the system named is post-infectious IBS. The conditions noted are these: recent study, Dunlap et al. 2003; cited from earlier work.
For the next data set, the system named is gastric ulcer. The conditions noted are these: clinical trials, versus placebo; cited from earlier work.
Data set [1] deals with functional dyspepsia or irritable bowel syndrome. The data set is described as follows: Veterinary case report: cat diagnosed with functional dyspepsia or irritable bowel syndrome given zinc-carnosine. Format: in vivo. Particulars: 15 mg BID. The source says:
A five year old, eight pound Siamese cat presented to vet with severe diarrhea, severe visible discomfort, inappetence and losing weight. […] Blood tests indicated no abnormalities and a stool samples indicated the cat was parasite free. The diagnosis of functional dyspepsia or irritable bowel syndrome made.

The subject of data set [2] is HCl-ethanol gastric damage. Particulars: cited from earlier work.
Another data set relates to water immersion stress. The conditions noted are these: cited from earlier work.
The subject of data set [3] is human MCT3-E1 cells (osteoblasts). The conditions noted are these: cited from earlier work.
Data set [4] relates to functional dyspepsia or irritable bowel syndrome. The data set is described as follows: Veterinary case reports: dogs diagnosed with functional dyspepsia or irritable bowel syndrome given zinc-carnosine. Format: in vivo. Particulars: dog, 30 mg/day. The source says:
Ellie, a three year old, sixteen pound West Highland Terrier presented to vet with visible discomfort, loose stools and intermittent diarrhea. […] The diagnosis of functional dyspepsia or irritable bowel syndrome made.
Katelyn, a six year old, fourteen pound Boston Terrier presented to vet with visible discomfort, diarrhea, vomiting and inappetence. […] Blood tests indicated no abnormalities and a stool samples indicated the dog was parasite free. The diagnosis of functional dyspepsia or irritable bowel syndrome made.

Data set [5] deals with human foreskin fibroblast cells. The conditions noted are these: cited from earlier work.
Data set [6] has as its system human umbilical vein endothelial cells. Particulars: cited from earlier work.
For data set [7] the following is noted: based on current evidence; cited from earlier work.
The subject of a further data set is TNBS model of colitis. Particulars: cited from earlier work.

With `C[C@]12C=CC(=O)C=C1CC[C@@H]1[C@@H]2[C@@H](O)C[C@@]2(C)[C@H]1CC[C@]2(O)C(=O)CO` [predinisolone], the “efficacy for treating post-infectious IBS” value in the data set on post-infectious IBS was “ineffective”.
Consider Zinc-Carnosine, for which the “effect in treatment of gastric ulcer” value in the data set on gastric ulcer is recorded as “beneficial effect above placebo”. Further, the “symptoms at check up” value in data set [1] (four week check up) and in data set [4] (four week check up) was “No further symptoms” each time. Further, the “improvement of conditions (diarrhea, discomfort, inappetence, weight loss)” value in data set [1] (within seven days) was “conditions improved significantly”. The “effect in animal model of gut ulceration and gross inflammation” value (in [2]; with water immersion stress; in the data set on TNBS model of colitis) was “beneficial effects” in each case. Also, the “stimulation of growth (proliferation)” value in [3], in [5] and in data set [6] was “able to stimulate growth (proliferation)” each time. Moreover, the “improvement of conditions (discomfort, diarrhea, vomiting, inappetence)” value in [4] (course during treatment) was “conditions improved on a daily basis”. Also, the “improvement of condition (discomfort, loose stools, diarrhea)” value in data set [4] (two week and four week follow-up visits) is “significant improvement”. For the same compound, the side effects entry in data set [7] is given as “little or no side effects”.
